We go through two molecules from US20100311661A1, “USE OF COMPOUNDS DERIVED FROM CYCLOHEXIMIDE FOR THE TREATMENT OR PREVENTION OF, IN PARTICULAR, ISCHAEMIAS AND CARDIOPATHIES” (Max Planck Gesellschaft Zur Forderung Der Wissenschaften …, priority 2007, published 2010).

Molecules are shown by their SMILES.

In experiment [1] the test system is liver cells of rats. The settings on record: cited from earlier work.
Experiment [2] has as its system retinal ganglion cells. The settings on record: in vivo; cited from earlier work.
For experiment [3], the system named is brain lesions. The settings on record: photothrombotic in vivo model in rats; cited from earlier work.
Experiment [4] deals with Hearts of 9-week-old male rats. Further details: species or system rats (Sprague-Dawley).
In experiment [5] the test system is adult cardiomyocytes. The experiment can be described thus: Adult cardiomyocytes under hypoxia and subsequent reoxygenation; apoptosis by Guava ViaCount assay. The settings on record: 18 hours hypoxia, 24 hours normoxic; DM-CHX greater than 1 μM; p<0.05.

Regarding `CC1CC(C)C(=O)C(C(O)CC2CC(=O)NC(=O)C2)C1` (centres unmarked) [CHX, 4-[2-(3,5-dimethyl-2-oxocyclohexyl)-2-hydroxy-ethyl]-2,6-piperidindione], the “protection against cell death” value in experiment [1] is on record as “protective property of CHX against cell death has also been demonstrated”. Further, in experiment [2], the “cell death caused by axotomy” value is “inhibits cell death caused by axotomy”. Moreover, in experiment [3], the “brain lesions triggered by radiation” value is given as “reduces brain lesions”.

Consider `C[C@@H]1C[C@@H]([C@H](O)CC2CC(=O)N(CC(=O)N(C)C)C(=O)C2)C(=O)[C@@H](C)C1` [DM-CHX], for which the “size of the infarct, qualitative (TTC colouring, visual)” value in experiment [4] is “serious difference in colouring”. In addition, in experiment [5], the influence on apoptosis entry is given as “statistically significant influence”.
